This test deals with Replicase polyprotein 1ab (Severe acute respiratory syndrome coronavirus 2, UniProt P0DTD1). The test can be described thus: Inhibition of recombinant SARS CoV-2 main protease by FRET assay.

Usually pIC50 stands for the negative decadic logarithm of the IC50, by convention in mol/L. Turning to `Cc1ccc(-n2[se]c3ccccc3c2=O)cc1`, the negative logarithm of the IC50 (pIC50) is 5.64. On to `COc1ccc(-n2[se]c3ccccc3c2=O)cc1`, for which the pIC50 is given as 5.903. Still for that read-out and setting: the same measure for `O=c1c2ccccc2[se]n1-c1ccc(F)cc1`: 5.556; for `O=c1c2ccccc2[se]n1-c1cc(Cl)cc(Cl)c1`: 6.194. On the same count and under the same terms, the same measure for `N#Cc1cccc(-n2[se]c3ccccc3c2=O)c1`: 6.42; for `O=c1c2ccccc2[se]n1-c1c(F)cccc1F`: 5.68.

On to `O=c1c2ccccc2[se]n1-c1ccc(C(F)(F)F)cc1`, for which the IC50 is 0.9 µM (read-out: IC50) and 0.883 µM (read-out: pIC50 (converted)). With `O=c1c2ccccc2[se]n1Cc1ccc(F)cc1`, the pIC50 came out at 6. In the case of `CCc1ccc(-n2[se]c3ccccc3c2=O)cc1`, the negative logarithm of the IC50 (pIC50) came to 5.209.

Turning to `COc1ccc(F)cc1-n1[se]c2ccccc2c1=O`, the pIC50 was 5.481.

Regarding `COc1cc(F)ccc1-n1[se]c2ccccc2c1=O`, the negative-log IC50 (pIC50) came to 5.745.

`O=c1c2ccccc2[se]n1-c1ccc(Br)cc1`: the pIC50 was 5.556. Regarding `O=c1c2ccccc2[se]n1-c1cccc(Cl)c1`, the pIC50 worked out at 6.167. The same measure, in the same setting: the figure for `O=c1c2ccccc2[se]n1-c1cccc(C(F)(F)F)c1` is 5.558; for `COc1ccc(Cn2[se]c3ccccc3c2=O)c(OC)c1` it is 6.215; for `Cc1ccccc1-n1[se]c2ccccc2c1=O` it is 5.129. As for `COc1ccc2[se]n(-c3ccccc3)c(=O)c2c1`, the IC50 by setting is: (read-out: IC50) 6.4 µM; (read-out: pIC50 (converted)) 6.18 µM.

Take `CCCCCCCc1ccc(-n2[se]c3ccccc3c2=O)cc1`: the IC50 (read-out: IC50) worked out at 5.56 µM.

Regarding `CCCCCCCCc1ccc(-n2[se]c3ccccc3c2=O)cc1`, the IC50 (read-out: IC50) is 2.69 µM.

For the origin of these results see ChEMBL document CHEMBL5584249, “Machine learning-based QSAR and LB-PaCS-MD guided design of SARS-CoV-2 main protease inhibitors” (Bioorg Med Chem Lett, 2024).
